# From the supplement of paper PMC10307832
# Columns and labels:
# Experiment in all cases: relative viability (nuclei count vs DMSO), 5 days (fraction); higher = more cells survive
# [1] = tested on: NCI-H1734
# Outline: (§1)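 After 5 days of treatment, lung cancer cells in 1536-well plates were fixed and stained in a single step (final 0.05% Triton X-100, 1% formaldehyde, 1 ug/ml Hoechst) and their nuclei counted on 4× images. Treatment had been applied by pin tool the day after seeding as one drug alone or as a fixed anchor-drug dose with five library-drug doses (not always all listed) in √10 steps. Relative viability is the nuclei count of treated wells divided by that of vehicle wells, and values are medians of duplicate plates.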
# [2] = tested on: PC-3 [JPC-3]
# Outline: as §1
# [3] = tested on: NCI-H460
# Outline: as §1
# [4] = tested on: HCC-366
# Outline: as §1
# [5] = tested on: NCI-H1651
# Outline: as §1
# [6] = tested on: LOU-NH91
# Outline: as §1
# [7] = tested on: NCI-H2087
# Outline: as §1
# [8] = tested on: NCI-H2228
# Outline: as §1
# [9] = tested on: ChaGo-K-1
# Outline: as §1
# [10] = tested on: NCI-H2170
# Outline: as §1
# [11] = tested on: CAL-12T
# Outline: as §1
# [12] = tested on: NCI-H1755
# Outline: as §1
# [13] = tested on: UMC-11
# Outline: as §1
# [14] = tested on: NCI-H1793
# Outline: as §1
# [15] = tested on: NCI-H1944
# Outline: as §1
# [16] = tested on: EPLC-272H
# Outline: as §1
# [17] = tested on: RERF-LC-KJ
# Outline: as §1
# [18] = tested on: NCI-H1395
# Outline: as §1
# [19] = tested on: HCC-78
# Outline: as §1
# [20] = tested on: LC-2-ad
# Outline: as §1
# [21] = tested on: ABC-1
# Outline: as §1
# [22] = tested on: LU99A
# Outline: as §1
# [23] = tested on: NCI-H3122
# Outline: as §1
# [24] = tested on: NCI-H2405
# Outline: as §1
structure (smiles),measurement,setting,value
Clc1ccc(Nc2nnc(Cc3ccncc3)c3ccccc23)cc1 [Vatalanib] + Cc1cc(Nc2cc(N3CCN(C)CC3)nc(Sc3ccc(NC(=O)C4CC4)cc3)n2)n[nH]1 [Tozasertib] (partner 0.1 µM),relative viability,[1]; first compound 0.04 µM,0.31
same,relative viability,[1]; first compound 0.1265 µM,0.232
same,relative viability,[1]; first compound 0.4 µM,0.278
same,relative viability,[1]; first compound 1.265 µM,0.276
same,relative viability,[1]; first compound 4 µM,0.249
same,relative viability,[2]; first compound 0.04 µM,0.876
same,relative viability,[2]; first compound 0.1265 µM,0.864
same,relative viability,[2]; first compound 0.4 µM,0.873
same,relative viability,[2]; first compound 1.265 µM,0.835
same,relative viability,[2]; first compound 4 µM,0.876
same,relative viability,[3]; first compound 0.04 µM,0.656
same,relative viability,[3]; first compound 0.1265 µM,0.299
same,relative viability,[3]; first compound 1.265 µM,0.296
same,relative viability,[3]; first compound 4 µM,0.397
same,relative viability,[4]; first compound 0.04 µM,0.119
same,relative viability,[4]; first compound 0.1265 µM,0.0909
same,relative viability,[4]; first compound 0.4 µM,0.161
same,relative viability,[4]; first compound 1.265 µM,0.103
same,relative viability,[4]; first compound 4 µM,0.095
same,relative viability,[5]; first compound 0.04 µM,0.845
same,relative viability,[5]; first compound 0.1265 µM,0.668
same,relative viability,[5]; first compound 0.4 µM,0.701
same,relative viability,[5]; first compound 1.265 µM,0.667
same,relative viability,[5]; first compound 4 µM,0.629
same,relative viability,[6]; first compound 0.04 µM,0.768
same,relative viability,[6]; first compound 0.1265 µM,0.634
same,relative viability,[6]; first compound 1.265 µM,0.652
same,relative viability,[6]; first compound 4 µM,0.621
same,relative viability,[7]; first compound 0.04 µM,0.254
same,relative viability,[7]; first compound 0.1265 µM,0.261
same,relative viability,[7]; first compound 0.4 µM,0.295
same,relative viability,[7]; first compound 1.265 µM,0.228
same,relative viability,[7]; first compound 4 µM,0.253
same,relative viability,[8]; first compound 0.04 µM,0.235
same,relative viability,[8]; first compound 0.1265 µM,0.309
same,relative viability,[8]; first compound 0.4 µM,0.273
same,relative viability,[8]; first compound 1.265 µM,0.227
same,relative viability,[8]; first compound 4 µM,0.239
same,relative viability,[9]; first compound 0.04 µM,0.241
same,relative viability,[9]; first compound 0.1265 µM,0.231
same,relative viability,[9]; first compound 0.4 µM,0.242
same,relative viability,[9]; first compound 1.265 µM,0.235
same,relative viability,[9]; first compound 4 µM,0.235
same,relative viability,[10]; first compound 0.04 µM,0.768
same,relative viability,[10]; first compound 0.1265 µM,0.706
same,relative viability,[10]; first compound 0.4 µM,0.796
same,relative viability,[10]; first compound 1.265 µM,0.677
same,relative viability,[10]; first compound 4 µM,0.777
same,relative viability,[11]; first compound 0.04 µM,0.307
same,relative viability,[11]; first compound 0.1265 µM,0.297
same,relative viability,[11]; first compound 0.4 µM,0.304
same,relative viability,[11]; first compound 1.265 µM,0.266
same,relative viability,[11]; first compound 4 µM,0.277
same,relative viability,[12]; first compound 0.04 µM,0.587
same,relative viability,[12]; first compound 0.1265 µM,0.612
same,relative viability,[12]; first compound 0.4 µM,0.701
same,relative viability,[12]; first compound 1.265 µM,0.58
same,relative viability,[12]; first compound 4 µM,0.628
same,relative viability,[13]; first compound 0.04 µM,0.198
same,relative viability,[13]; first compound 0.1265 µM,0.206
same,relative viability,[13]; first compound 0.4 µM,0.147
same,relative viability,[13]; first compound 1.265 µM,0.214
same,relative viability,[13]; first compound 4 µM,0.205
same,relative viability,[14]; first compound 0.04 µM,0.342
same,relative viability,[14]; first compound 0.1265 µM,0.341
same,relative viability,[14]; first compound 0.4 µM,0.364
same,relative viability,[14]; first compound 1.265 µM,0.276
same,relative viability,[14]; first compound 4 µM,0.329
same,relative viability,[15]; first compound 0.04 µM,0.267
same,relative viability,[15]; first compound 0.1265 µM,0.247
same,relative viability,[15]; first compound 0.4 µM,0.262
same,relative viability,[15]; first compound 1.265 µM,0.266
same,relative viability,[15]; first compound 4 µM,0.235
same,relative viability,[16]; first compound 0.04 µM,0.319
same,relative viability,[16]; first compound 0.1265 µM,0.271
same,relative viability,[16]; first compound 0.4 µM,0.411
same,relative viability,[16]; first compound 1.265 µM,0.324
same,relative viability,[16]; first compound 4 µM,0.249
same,relative viability,[17]; first compound 0.04 µM,0.602
same,relative viability,[17]; first compound 0.1265 µM,0.555
same,relative viability,[17]; first compound 0.4 µM,0.511
same,relative viability,[17]; first compound 1.265 µM,0.454
same,relative viability,[17]; first compound 4 µM,0.436
same,relative viability,[18]; first compound 0.04 µM,0.734
same,relative viability,[18]; first compound 0.1265 µM,0.75
same,relative viability,[18]; first compound 0.4 µM,0.747
same,relative viability,[18]; first compound 1.265 µM,0.648
same,relative viability,[18]; first compound 4 µM,0.792
same,relative viability,[19]; first compound 0.04 µM,0.447
same,relative viability,[19]; first compound 0.1265 µM,0.494
same,relative viability,[19]; first compound 0.4 µM,0.559
same,relative viability,[19]; first compound 1.265 µM,0.436
same,relative viability,[19]; first compound 4 µM,0.493
same,relative viability,[20]; first compound 0.04 µM,0.53
same,relative viability,[20]; first compound 0.1265 µM,0.385
same,relative viability,[20]; first compound 1.265 µM,0.469
same,relative viability,[20]; first compound 4 µM,0.425
same,relative viability,[21]; first compound 0.04 µM,0.184
same,relative viability,[21]; first compound 0.1265 µM,0.166
same,relative viability,[21]; first compound 1.265 µM,0.177
same,relative viability,[21]; first compound 4 µM,0.207
same,relative viability,[22]; first compound 0.04 µM,0.282
same,relative viability,[22]; first compound 0.1265 µM,0.289
same,relative viability,[22]; first compound 0.4 µM,0.305
same,relative viability,[22]; first compound 1.265 µM,0.266
same,relative viability,[22]; first compound 4 µM,0.286
same,relative viability,[23]; first compound 0.04 µM,0.401
same,relative viability,[23]; first compound 0.1265 µM,0.358
same,relative viability,[23]; first compound 1.265 µM,0.378
same,relative viability,[23]; first compound 4 µM,0.385
same,relative viability,[24]; first compound 0.04 µM,0.798
same,relative viability,[24]; first compound 0.1265 µM,0.726
same,relative viability,[24]; first compound 1.265 µM,0.627
same,relative viability,[24]; first compound 4 µM,0.663
